Experimental data reported in ChEMBL document CHEMBL1201862, “PubChem BioAssay data set” (2004).
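Assay format: 96-well plates, 48-hour exposure. GI50: concentration for 50% inhibition of growth.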 Active and inactive are the calls of the source. Cut-off read from the data, not from the text of the source: active = GI50 up to about 1.1 µM and inactive = higher.

Columns and labels:
Test in all cases: inhibition of tumour cell growth, NCI panel, 48 h
SK-MEL-28 = tested on: SK-MEL-28
Hs-578T = tested on: Hs-578T
SW-620 = tested on: SW-620
A498 = tested on: A498
SF-539 = tested on: SF-539
NCI/ADR-RES = tested on: NCI/ADR-RES
MOLT-4 = tested on: MOLT-4
SK-MEL-2 = tested on: SK-MEL-2
PC-3 = tested on: PC-3
SK-MEL-5 = tested on: SK-MEL-5
MDA-MB-435 = tested on: MDA-MB-435
HT-29 = tested on: HT-29
COLO 205 = tested on: COLO 205
DU-145 = tested on: DU-145
MDA-MB-231 = tested on: MDA-MB-231
OVCAR-4 = tested on: OVCAR-4
SR = tested on: SR
786-0 = tested on: 786-0
ACHN = tested on: ACHN

Measured: GI50

CCSc1nc(=S)n(-c2ccccc2)c(C)c1C(C)=O
inactive: SK-MEL-28 > 100 µM | Hs-578T > 100 µM | SW-620 > 100 µM | A498 > 100 µM | SF-539 > 100 µM | NCI/ADR-RES > 100 µM | MOLT-4 > 100 µM | SK-MEL-2 > 100 µM | PC-3 > 100 µM | SK-MEL-5 > 100 µM | MDA-MB-435 > 100 µM | HT-29 > 100 µM | COLO 205 > 100 µM | DU-145 > 100 µM | MDA-MB-231 > 100 µM | OVCAR-4 > 100 µM | SR > 100 µM | 786-0 > 100 µM | ACHN > 100 µM

COC(=O)[C@H](Cc1ccccc1)NP(=O)(O)OCC1OC(n2cc(C)c(=O)[nH]c2=O)CC1N=[N+]=[N-] (some centres undefined)
inactive: SK-MEL-28 > 100 µM | Hs-578T > 100 µM | SW-620 > 100 µM | A498 > 100 µM | SF-539 > 100 µM | NCI/ADR-RES > 100 µM | MOLT-4 > 100 µM | SK-MEL-2 > 100 µM | PC-3 > 100 µM | SK-MEL-5 > 100 µM | MDA-MB-435 > 100 µM | HT-29 > 100 µM | COLO 205 > 100 µM | DU-145 > 100 µM | MDA-MB-231 > 100 µM | OVCAR-4 > 100 µM | SR > 100 µM | 786-0 > 100 µM | ACHN > 100 µM

CN1CC2=C(N=C(S)NC2c2ccccc2Cl)/C(=C/c2ccccc2Cl)C1 (centres undefined)
inactive: SK-MEL-28 > 100 µM | Hs-578T > 100 µM | SW-620 > 100 µM | A498 77.3 µM | SF-539 73.6 µM | NCI/ADR-RES 30.5 µM | MOLT-4 23 µM | SK-MEL-2 69 µM | PC-3 26.5 µM | SK-MEL-5 12.2 µM | MDA-MB-435 28.8 µM | HT-29 30.8 µM | COLO 205 21.8 µM | DU-145 76.2 µM | MDA-MB-231 26.2 µM | OVCAR-4 14.3 µM | SR 17.7 µM | 786-0 > 100 µM | ACHN 25.1 µM

COC(=O)N[C@@H]1C[C@H]2CC[C@]1(O[Si](C(C)C)(C(C)C)C(C)C)C(=O)C2
inactive: SK-MEL-28 14.6 µM | Hs-578T 10.3 µM | SW-620 27.7 µM | A498 21.4 µM | NCI/ADR-RES 14.8 µM | MOLT-4 24.3 µM | SK-MEL-2 17.4 µM | PC-3 12.9 µM | SK-MEL-5 16.4 µM | MDA-MB-435 17.9 µM | HT-29 19.1 µM | COLO 205 34.6 µM | DU-145 > 100 µM | MDA-MB-231 20.5 µM | OVCAR-4 14.5 µM | SR 6.93 µM | 786-0 17.9 µM | ACHN 18.4 µM

N#Cc1nc(C(O)c2ccccc2)oc1N (centres undefined)
inactive: SK-MEL-28 > 100 µM | Hs-578T > 100 µM | SW-620 > 100 µM | A498 > 100 µM | SF-539 > 100 µM | NCI/ADR-RES > 100 µM | MOLT-4 > 100 µM | SK-MEL-2 > 100 µM | PC-3 > 100 µM | SK-MEL-5 > 100 µM | HT-29 > 100 µM | COLO 205 > 100 µM | DU-145 > 100 µM | MDA-MB-231 > 100 µM | 786-0 > 100 µM | ACHN > 100 µM

O=C(O)CCCc1ccc2c(c1)CC1(C2)Cc2ccc(CCCC(=O)O)cc2C1
inactive: Hs-578T > 100 µM | A498 > 100 µM | SF-539 > 100 µM | NCI/ADR-RES > 100 µM | MOLT-4 > 100 µM | SK-MEL-2 > 100 µM | PC-3 > 100 µM | SK-MEL-5 54 µM | MDA-MB-435 > 100 µM | HT-29 > 100 µM | COLO 205 > 100 µM | MDA-MB-231 > 100 µM | OVCAR-4 > 100 µM | SR > 100 µM | 786-0 > 100 µM | ACHN > 100 µM

Cc1cccc(Nc2cn(CCOc3ccccc3)c(=O)n(CCOc3ccccc3)c2=O)c1
inactive: SK-MEL-28 > 100 µM | Hs-578T > 100 µM | SW-620 > 100 µM | A498 > 100 µM | MOLT-4 > 100 µM | PC-3 > 100 µM | SK-MEL-5 > 100 µM | MDA-MB-435 > 100 µM | COLO 205 > 100 µM | DU-145 > 100 µM | OVCAR-4 > 100 µM | SR > 100 µM | 786-0 > 100 µM | ACHN > 100 µM

NCC1Nc2ccccc2[C@@H](O)C1O (some centres undefined)
inactive: SK-MEL-28 > 100 µM | Hs-578T > 100 µM | SW-620 > 100 µM | SF-539 > 100 µM | NCI/ADR-RES > 100 µM | MOLT-4 > 100 µM | SK-MEL-2 > 100 µM | PC-3 > 100 µM | SK-MEL-5 > 100 µM | MDA-MB-435 > 100 µM | HT-29 > 100 µM | COLO 205 > 100 µM | DU-145 > 100 µM | MDA-MB-231 > 100 µM | OVCAR-4 > 100 µM | SR > 100 µM | 786-0 > 100 µM | ACHN > 100 µM
